As a reminder, the IC50 is the midpoint of a concentration-inhibition curve.

These results are taken from BindingDB's records for patent US20240343694 (Korea Reserarch Institute of Chemical Technology, 2024).

For test [1], the target named is T1, Epidermal growth factor receptor [1-763,'FHEA',764-1210] (UniProt P00533).
T1 construct: 1-763,'FHEA',764-1210
Nature of the test: Inhibitory Activity of Compounds Against EGFR Mutant Enzyme. How it is done: (§1) The activity of the compounds of the present invention against EGFR mutant enzymes was measured using the HTRF system purchased from Cisbio as follows. For an EGFR mutant enzyme, the EGFR del19 enzyme was a recombinant protein purchased from Carna Biosciences, and the EGFR A763_Y764insFHEA enzyme was a recombinant protein purchased from SignalChem, respectively.The composition of the assay buffer used for activity measurement was 50 mM tris-HCl pH 7.5, 100 mM NaCl, 7.5 mM MgCl2, 3 mM KCl, 0.01% tween 20, 0.1% BSA, and 1 mM DTT. An enzymatic reaction was performed using a peptide substrate labeled with ATP at a concentration of […] and biotin at a concentration of […]. The analysis of the inhibitory effect of the compounds on EGFR activity was performed according to the following method.Component 1:4 μL of EGFR mutant enzymeComponent 2:2 μL of compound solutionComponent 3:4 μL of ATP and a biotin labeled peptideThe enzyme reaction begins by first mixing component 1 and component 2 and then adding component 3 thereto. After the reaction at 37° C. for 2 hours, […] of a measurement solution consisting of streptavidin-XL665 and a europium-labeled anti-phosphotyrosine antibody purchased from Cisbio was added to the enzyme reaction solution and reacted at room temperature for 1 hour. Finally, the ratio of fluorescence values at 615 nm and 665 nm was measured using Perkin-Elmer's Envision instrument to calculate enzyme activity and confirm the inhibitory ability of the compounds.

In test [2] the target is T2, Epidermal growth factor receptor [DEL746-750] (Homo sapiens, UniProt P00533).
T2 construct: gene EGFR
T2 sequence (P00533 with tags, fused parts or gaps DEL746-750 limits assumed, stated change not applied): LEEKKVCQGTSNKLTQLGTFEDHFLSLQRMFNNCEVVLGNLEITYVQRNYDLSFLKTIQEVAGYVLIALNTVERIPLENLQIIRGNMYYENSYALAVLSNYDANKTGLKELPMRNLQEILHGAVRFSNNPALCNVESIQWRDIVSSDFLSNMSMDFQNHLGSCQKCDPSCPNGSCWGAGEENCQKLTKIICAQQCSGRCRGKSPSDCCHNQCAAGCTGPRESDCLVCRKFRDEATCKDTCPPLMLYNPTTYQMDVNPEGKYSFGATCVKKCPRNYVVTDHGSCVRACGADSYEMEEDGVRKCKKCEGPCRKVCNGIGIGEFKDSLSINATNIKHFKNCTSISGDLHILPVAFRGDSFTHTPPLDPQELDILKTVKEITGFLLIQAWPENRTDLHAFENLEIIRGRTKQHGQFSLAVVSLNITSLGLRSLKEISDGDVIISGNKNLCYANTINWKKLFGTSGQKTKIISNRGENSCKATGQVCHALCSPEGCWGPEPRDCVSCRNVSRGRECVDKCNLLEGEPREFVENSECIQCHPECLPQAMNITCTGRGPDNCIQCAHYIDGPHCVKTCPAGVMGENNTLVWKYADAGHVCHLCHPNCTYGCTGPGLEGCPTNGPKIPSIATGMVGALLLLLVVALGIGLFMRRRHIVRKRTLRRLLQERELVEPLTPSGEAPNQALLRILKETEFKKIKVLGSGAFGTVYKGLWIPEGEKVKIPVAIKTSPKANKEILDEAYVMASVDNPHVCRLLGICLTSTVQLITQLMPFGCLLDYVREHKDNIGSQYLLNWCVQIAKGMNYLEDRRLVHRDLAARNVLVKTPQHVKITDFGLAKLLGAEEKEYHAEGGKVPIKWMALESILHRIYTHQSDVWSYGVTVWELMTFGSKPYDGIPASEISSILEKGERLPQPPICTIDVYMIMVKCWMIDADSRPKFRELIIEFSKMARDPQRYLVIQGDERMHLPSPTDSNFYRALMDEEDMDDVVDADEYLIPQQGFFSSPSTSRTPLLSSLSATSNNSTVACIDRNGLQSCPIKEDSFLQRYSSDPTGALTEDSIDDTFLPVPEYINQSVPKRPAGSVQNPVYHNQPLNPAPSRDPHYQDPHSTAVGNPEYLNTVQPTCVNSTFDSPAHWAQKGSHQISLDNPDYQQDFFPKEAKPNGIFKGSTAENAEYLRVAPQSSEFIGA
The description is as above. Here is the method: as §1

Test [3] addresses T3, Receptor tyrosine-protein kinase erbB-2 [1-775,'YVMA',776-1255] (Homo sapiens, UniProt P04626).
T3 construct: 1-775,'YVMA',776-1255
The experiment in a line: Inhibitory Activity of Compounds Against HER2 A775_G776insYVMA mutant enzyme. How it is done: The activity of the compounds of the present invention against HER mutant enzymes was measured using the HTRF system purchased by Cisbio as follows. As a HER2 mutant enzyme, the HER2 A775_G776insYVMA mutant enzyme was used by purchasing a recombinant protein provided by Carna Biosciences.The composition of the assay buffer used for activity measurement was 50 mM tris-HCl pH 7.5, 100 mM NaCl, 7.5 mM MgCl2, 3 mM KCl, 0.01% tween 20, 0.1% BSA, and 1 mM DTT. In addition thereto, the enzymatic reaction was performed using a peptide substrate labeled with ATP at a concentration of […] and biotin at a concentration of […]. The analysis of the activity inhibitory effect of the compounds on HER2 A775_G776insYVMA mutation was performed according to the following method.Component 1:4 μL of HER2 A775_G776insYVMA mutant enzymeComponent 2:2 μL of compound solutionComponent 3:4 μL of ATP and a biotin labeled peptideThe enzyme reaction begins by first mixing component 1 and component 2 and then adding component 3 thereto. After the reaction at 37° C. for 2 hours, […] of a measurement solution consisting of streptavidin-XL665 and a europium-labeled anti-phosphotyrosine antibody purchased from Cisbio was added to the enzyme reaction solution and reacted at room temperature for 1 hour. Finally, the ratio of fluorescence values at 615 nm and 665 nm was measured using Perkin-Elmer's Envision equipment to calculate enzyme activity and confirm the inhibitory ability of the compounds.

T3 sequence (P04626 with tags, fused parts or gaps INS775YVMA limits assumed): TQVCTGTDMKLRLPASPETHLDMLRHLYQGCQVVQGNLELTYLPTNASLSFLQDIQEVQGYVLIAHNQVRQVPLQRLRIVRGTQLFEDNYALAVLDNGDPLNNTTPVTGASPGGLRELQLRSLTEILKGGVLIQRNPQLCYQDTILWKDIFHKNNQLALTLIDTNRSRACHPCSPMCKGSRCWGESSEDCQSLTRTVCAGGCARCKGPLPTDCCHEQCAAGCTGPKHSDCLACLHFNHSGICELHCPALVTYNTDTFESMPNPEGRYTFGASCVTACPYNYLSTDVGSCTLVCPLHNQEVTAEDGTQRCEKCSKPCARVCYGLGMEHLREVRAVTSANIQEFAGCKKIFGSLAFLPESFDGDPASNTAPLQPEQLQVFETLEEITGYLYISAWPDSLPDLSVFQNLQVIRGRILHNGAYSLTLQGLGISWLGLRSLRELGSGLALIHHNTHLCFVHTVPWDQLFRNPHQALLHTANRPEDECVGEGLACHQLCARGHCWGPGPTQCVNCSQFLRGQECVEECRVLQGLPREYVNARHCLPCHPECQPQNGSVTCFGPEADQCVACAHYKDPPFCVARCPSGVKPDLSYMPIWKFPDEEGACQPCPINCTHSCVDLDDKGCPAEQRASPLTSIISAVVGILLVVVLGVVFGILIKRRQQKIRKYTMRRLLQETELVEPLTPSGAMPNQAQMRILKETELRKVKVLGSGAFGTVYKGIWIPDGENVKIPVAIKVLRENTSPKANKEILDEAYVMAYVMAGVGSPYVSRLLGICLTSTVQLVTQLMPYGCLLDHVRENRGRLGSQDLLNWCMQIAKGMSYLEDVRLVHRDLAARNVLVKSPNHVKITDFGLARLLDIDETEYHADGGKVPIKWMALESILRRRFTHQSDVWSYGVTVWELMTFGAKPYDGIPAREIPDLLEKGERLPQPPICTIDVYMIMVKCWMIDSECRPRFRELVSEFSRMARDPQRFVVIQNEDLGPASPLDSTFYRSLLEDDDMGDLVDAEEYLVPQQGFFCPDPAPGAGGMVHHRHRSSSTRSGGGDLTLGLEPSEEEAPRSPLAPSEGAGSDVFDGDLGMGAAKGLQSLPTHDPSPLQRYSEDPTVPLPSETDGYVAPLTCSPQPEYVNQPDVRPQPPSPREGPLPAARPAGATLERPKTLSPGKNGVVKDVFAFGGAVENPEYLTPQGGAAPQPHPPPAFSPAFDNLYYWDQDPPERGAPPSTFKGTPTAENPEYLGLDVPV
T1 sequence (P00533 with tags, fused parts or gaps INS763FHEA limits assumed): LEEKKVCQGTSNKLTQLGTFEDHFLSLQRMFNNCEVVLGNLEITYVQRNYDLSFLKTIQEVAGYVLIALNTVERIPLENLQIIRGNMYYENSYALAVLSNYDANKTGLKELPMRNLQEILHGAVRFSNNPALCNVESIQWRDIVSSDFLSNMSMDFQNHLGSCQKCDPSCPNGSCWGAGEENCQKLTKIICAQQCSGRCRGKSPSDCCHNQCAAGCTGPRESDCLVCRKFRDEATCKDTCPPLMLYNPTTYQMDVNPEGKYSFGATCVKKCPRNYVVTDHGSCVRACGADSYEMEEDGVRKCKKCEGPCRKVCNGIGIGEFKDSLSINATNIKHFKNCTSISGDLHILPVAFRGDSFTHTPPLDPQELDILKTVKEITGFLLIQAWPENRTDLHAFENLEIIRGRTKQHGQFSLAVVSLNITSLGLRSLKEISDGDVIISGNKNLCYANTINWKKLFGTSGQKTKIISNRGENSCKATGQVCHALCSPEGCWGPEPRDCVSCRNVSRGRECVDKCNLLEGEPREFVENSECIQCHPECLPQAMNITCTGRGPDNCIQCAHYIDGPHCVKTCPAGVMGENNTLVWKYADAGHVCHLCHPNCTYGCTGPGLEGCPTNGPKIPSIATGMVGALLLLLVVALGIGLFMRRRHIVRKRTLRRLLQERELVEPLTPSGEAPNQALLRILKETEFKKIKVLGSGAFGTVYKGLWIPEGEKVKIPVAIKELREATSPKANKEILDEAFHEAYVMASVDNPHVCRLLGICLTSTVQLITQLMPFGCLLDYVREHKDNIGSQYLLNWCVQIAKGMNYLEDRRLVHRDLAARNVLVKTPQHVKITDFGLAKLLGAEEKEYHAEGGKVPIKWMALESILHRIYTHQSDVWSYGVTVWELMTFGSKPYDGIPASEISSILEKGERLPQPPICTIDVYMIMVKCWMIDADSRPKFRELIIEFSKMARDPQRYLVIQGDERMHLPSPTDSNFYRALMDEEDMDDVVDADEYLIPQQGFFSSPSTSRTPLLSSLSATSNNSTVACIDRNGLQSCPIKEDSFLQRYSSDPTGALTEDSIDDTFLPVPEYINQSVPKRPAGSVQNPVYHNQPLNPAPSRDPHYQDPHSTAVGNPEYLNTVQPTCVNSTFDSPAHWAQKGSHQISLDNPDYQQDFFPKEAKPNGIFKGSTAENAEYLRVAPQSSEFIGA

On to `Cc1ccc(S(=O)(=O)Nc2ccccc2Nc2nc(Cl)ncc2F)cc1` [US20240343694, Example 23], for which the IC50 is 3 nM in test [1], under 1 nM in test [2] and 30 nM in test [3].
With `Cc1cnc(Cl)nc1Nc1ccccc1NS(C)(=O)=O` [US20240343694, Example 24], the IC50 in test [1] was 3 nM; in test [2], under 1 nM; in test [3], 27 nM.
For `Cc1ccc(S(=O)(=O)Nc2ccccc2Nc2nc(Cl)ncc2C)cc1` [US20240343694, Example 25], in that order: under 1 nM, under 1 nM and 6 nM.
Take `CCCS(=O)(=O)Nc1ccccc1Nc1nc(Cl)ncc1C` [US20240343694, Example 26]: the IC50 in test [1] is 200 nM; in test [2], 4 nM; in test [3], 80 nM.
Take `CCS(=O)(=O)Nc1ccccc1Nc1nc(Cl)ncc1C` [US20240343694, Example 27]: the IC50 was 9 nM in test [1], 3 nM in test [2] and 30 nM in test [3].
For `Cc1cnc(Cl)nc1Nc1ccccc1NS(=O)(=O)c1ccccc1` [US20240343694, Example 28], in that order: 8 nM, under 1 nM and 70 nM.
The like results for `C=CC(=O)Nc1cc(N)c(OC)cc1N(C)CCN1CCCC1` [US20240343694, Example 29] were, in that order, under 1 nM, under 1 nM and 5 nM.
Consider `C=CC(=O)Nc1cc(N)c(OC)cc1OCCN1CCCC1` [US20240343694, Example 30], for which the figures for the IC50 in test [1], in test [2] and in test [3] were under 1 nM, under 1 nM and 4 nM, respectively.
For `C=CC(=O)Nc1cc(N)c(OC)cc1N(C)CCN1CCCCC1` [US20240343694, Example 31], the figures for the IC50 in test [1], in test [2] and in test [3] were under 1 nM, under 1 nM and 0.3 nM, respectively.
For `C=CC(=O)Nc1cc(N)c(OC)cc1N(C)CCN(C(=O)OCc1ccccc1)C(C)C` [US20240343694, Example 32], the results for the IC50 in test [1], in test [2] and in test [3] were 1 nM, under 1 nM and 8 nM, respectively.
For the compound `C=CC(=O)Nc1cc(Nc2ncc(Cl)c(Nc3ccccc3NS(C)(=O)=O)n2)c(OC)cc1N(C)CCN(C(=O)OCc1ccccc1)C(C)C` [US20240343694, Example 33], the IC50 in test [1] was under 1 nM; in test [2] it was under 1 nM; in test [3] it was 7 nM.
In the case of `C=CC(=O)Nc1cc(N)c(OC)cc1N(C)CCN(C)C(=O)OCc1ccccc1` [US20240343694, Example 34], the results for the IC50 in test [1], in test [2] and in test [3] were 1 nM, under 1 nM and 20 nM, respectively.
In the case of `C=CC(=O)Nc1cc(Nc2ncc(Cl)c(Nc3ccccc3NS(C)(=O)=O)n2)c(OC)cc1N(C)CCN(C)C(=O)OCc1ccccc1` [US20240343694, Example 35], the IC50 in test [1] is 3 nM; in test [2], under 1 nM; in test [3], 27 nM.
Regarding `COc1cc(N2CCOCC2)c(N)cc1Nc1ncc(Cl)c(Nc2ccccc2NS(C)(=O)=O)n1` [US20240343694, Example 36], the IC50 was 1 nM in test [1], under 1 nM in test [2] and 10 nM in test [3].
The like results for `COc1cc(N2CCN(C)CC2)c(N)cc1Nc1ncc(Cl)c(Nc2ccccc2NS(C)(=O)=O)n1` [US20240343694, Example 37] were, in that order, 2 nM, under 1 nM and 26 nM.
Consider `COc1cc(N(C)CCN(C)C)c(N)cc1Nc1ncc(Cl)c(Nc2ccccc2NS(C)(=O)=O)n1` [US20240343694, Example 38], for which the IC50 in test [1] is 2 nM; in test [2], under 1 nM; in test [3], 14 nM.
On to `CN(c1ccccc1Nc1nc(Cl)ncc1Cl)S(C)(=O)=O` [US20240343694, Example 39], for which the values for the IC50 in test [1], in test [2] and in test [3] were under 1 nM, under 1 nM and 8 nM, respectively.
For `CCS(=O)(=O)N(C)c1ccccc1Nc1nc(Cl)ncc1Cl` [US20240343694, Example 40], the IC50 was 1 nM in test [1], under 1 nM in test [2] and 4 nM in test [3].
For `CCN(c1ccccc1Nc1nc(Cl)ncc1Cl)S(C)(=O)=O` [US20240343694, Example 41], the IC50 in test [1] is 1 nM; in test [2], under 1 nM; in test [3] it was 9 nM.
For `CC(C)N(c1ccccc1Nc1nc(Cl)ncc1Cl)S(C)(=O)=O` [US20240343694, Example 42], the IC50 in test [1] is under 1 nM; in test [2] it was under 1 nM; in test [3], 6 nM.
For the compound `CCN(c1ccccc1Nc1nc(Cl)ncc1Cl)S(=O)(=O)CC` [US20240343694, Example 43], the IC50 in test [1] was under 1 nM; in test [2], under 1 nM; in test [3], 8 nM.
With `CS(=O)(=O)Nc1c(Cl)cccc1Nc1nc(Cl)ncc1Cl` [US20240343694, Example 44], the IC50 was under 1 nM in test [1], under 1 nM in test [2] and 6 nM in test [3].
As for `CN(c1c(Cl)cccc1Nc1nc(Cl)ncc1Cl)S(C)(=O)=O` [US20240343694, Example 45], the IC50 in test [1] was under 1 nM; in test [2], under 1 nM; in test [3], 8 nM.
As for `Cc1cccc(Nc2nc(Cl)ncc2Cl)c1NS(C)(=O)=O` [US20240343694, Example 46], the IC50 in test [1] is under 1 nM; in test [2], under 1 nM; in test [3], 2 nM.
Turning to `CC(C)c1cccc(Nc2nc(Cl)ncc2Cl)c1N(C)S(C)(=O)=O` [US20240343694, Example 47], the figures for the IC50 in test [1], in test [2] and in test [3] were under 1 nM, under 1 nM and 6 nM, respectively.
`Cc1cccc(Nc2nc(Cl)ncc2Cl)c1N(C)S(C)(=O)=O` [US20240343694, Example 48]: the values for the IC50 in test [1], in test [2] and in test [3] were 7 nM, 3 nM and 20 nM, respectively.
For `CCN(c1c(C)cccc1Nc1nc(Cl)ncc1Cl)S(C)(=O)=O` [US20240343694, Example 49], in that order: 10 nM, 0.1 nM and 60 nM.
`CCc1cccc(Nc2nc(Cl)ncc2Cl)c1NS(C)(=O)=O` [US20240343694, Example 50]: the IC50 was 3 nM in test [1], under 1 nM in test [2] and 60 nM in test [3].
Turning to `CCc1cccc(Nc2nc(Cl)ncc2Cl)c1N(C)S(C)(=O)=O` [US20240343694, Example 51], the IC50 in test [1] was under 1 nM; in test [2] it was under 1 nM; in test [3], 30 nM.
For `CCc1cccc(Nc2nc(Cl)ncc2Cl)c1NS(=O)(=O)CC` [US20240343694, Example 52], the IC50 in test [1] was under 1 nM; in test [2] it was under 1 nM; in test [3], 4 nM.
In test [3], `Cc1ccc(Nc2nc(Cl)ncc2Cl)c(N(C)S(C)(=O)=O)c1C` [US20240343694, Example 53] showed an IC50 of 10 nM.
On to `Cc1ccc(Nc2nc(Cl)ncc2Cl)c(NS(C)(=O)=O)c1C` [US20240343694, Example 54], for which the IC50 in test [1] was under 1 nM; in test [2], under 1 nM; in test [3], 10 nM.
For the compound `Cc1ccc(Nc2nc(Cl)ncc2Cl)c(N(C)S(C)(=O)=O)c1` [US20240343694, Example 55], the IC50 in test [1], in test [2] and in test [3] was under 1 nM each time.
Turning to `Cc1ccc(Nc2nc(Cl)ncc2Cl)c(NS(C)(=O)=O)c1` [US20240343694, Example 56], the IC50 in test [1], in test [2] and in test [3] was under 1 nM in each case.
Turning to `CS(=O)(=O)N1CCCc2cccc(Nc3nc(Cl)ncc3Cl)c21` [US20240343694, Example 57], the IC50 in test [1], in test [2] and in test [3] was under 1 nM throughout.
For the compound `CC(C)OC(=O)c1cnc(Cl)nc1Nc1cccc2c1N(S(C)(=O)=O)CCC2` [US20240343694, Example 62], the IC50 in test [3] amounted to 3 nM.
On the same count and under the same terms, with `C=CC(=O)Nc1cc(N)c(OC)cc1N(C)CCN1CCOCC1` [US20240343694, Example 63] the figure was under 1 nM.
